≈ marks a conversion by molar mass, not a printed value. Where “and” joins values, the source holds several entries; their conditions need not be identical. Equal entries are not always repeated. Entries after “also recorded” stand apart in the source; their conditions may differ. Where two headings read alike, the source gives them in different places.
Columns and labels:
Amylase aus Bacillus sp. = assay: Amylase activity assay in microtiter plates (dye-labelled starch substrate), commercial enzyme; format: biochemical; details: for Hemmung der Enzymaktivität: result in words
Excerpt: (§1) Diese Methode basiert auf folgendem Prinzip:

Humanspeichelamylase = target: T1, Humanspeichelamylase (Homo sapiens, UniProt P0DUB6); assay: as above; format: biochemical; details: for Hemmung der Enzymaktivität: result in words
T1 construct: purchased Sigma
T1 sequence (P0DUB6 16-511): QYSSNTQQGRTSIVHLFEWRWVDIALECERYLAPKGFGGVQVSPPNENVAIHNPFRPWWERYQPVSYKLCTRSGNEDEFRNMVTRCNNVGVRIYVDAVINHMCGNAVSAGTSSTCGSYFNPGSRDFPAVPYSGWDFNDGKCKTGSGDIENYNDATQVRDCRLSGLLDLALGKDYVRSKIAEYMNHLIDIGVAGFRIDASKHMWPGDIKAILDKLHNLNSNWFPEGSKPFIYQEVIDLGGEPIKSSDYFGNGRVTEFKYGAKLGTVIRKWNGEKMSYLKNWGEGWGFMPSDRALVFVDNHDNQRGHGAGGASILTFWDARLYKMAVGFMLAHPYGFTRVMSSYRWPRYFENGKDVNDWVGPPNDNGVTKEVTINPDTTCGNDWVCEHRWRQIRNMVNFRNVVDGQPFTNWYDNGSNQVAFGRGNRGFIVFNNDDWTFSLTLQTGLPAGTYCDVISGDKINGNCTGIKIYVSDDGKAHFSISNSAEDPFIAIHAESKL
Excerpt: as §1

[1] = target: Amylase aus Aspergillus oryzae (Aspergillus oryzae, UniProt P0C1B3); assay: Amylase activity assay in microtiter plates (dye-labelled starch substrate), commercial enzymes; format: biochemical; details: both Aspergillus amylases (35 U/mg Fluka, 200 U/mg Sigma); result in words
Excerpt: as §1

[2] = system: Amylasen aus Kulturfiltrat (Strohextrakt) von in vitro angezogenem Fusarium graminearum; format: biochemical; details: for Hemmung der Enzymaktivität: result in words
[3] = system: Amylasen von mit F. graminearum infizierten Pflanzen; format: biochemical, Fusarium graminearum; details: for Hemmung der Enzymaktivität: result in words
Fusarium graminearum [4] = assay: microbe, parasite or virus in culture; format: cell-based; details: for Einfluss auf das Wachstum von Fusarium graminearum: Saccharose as sole C source, up to 14 days
Fusarium graminearum [5] = format: in vivo; details: for Fusarium Protein Equivalent (µg/g), Mittelwert: above-ground parts; for Fusarium Protein Equivalent (µg/g), Mittelwert / Fusarium Protein Equivalent (µg /g), Mean: 2 weeks after sowing; for Aussehen der behandelten, infizierten Pflanzen (Fotos): folded filter, very high infection pressure; for Reduktion des Befalls der Wurzeln (ELISA): roots of infected wheat seedlings on folded filter; for Fusarium Protein Equivalent (µg /g), Mean: roots
Fusarium graminearum [6] = format: in vivo
[7] = system: Blumeria graminis f. sp. tritici; assay: Powdery mildew rating on sprayed wheat plants (MOLL et al. 1996); format: in vivo; details: 7 dpi; spray treatment at 3-leaf stage; AI-1 and AI-2 1 mg/ml, CI 100 µg/ml; Kontrolle 60
Excerpt: Nach einer Sprühbehandlung der Weizenpflanzen im 3-Blatt-Stadium und anschließender Inokulation (nach Abtrocknen) mit Mehltau Blumeria graminis f. sp. tritici sind eindeutige Hemmeffekte zu erkennen (Figur 25-27). Eine Bonitur nach MOLL et al. (1996) ergab für den Amylase-Inhibitor AI-1 eine Befallsreduktion von 60% auf 7%, für den Amylase-Inhibitor AI-2 auf 1 % und für den Cellulase-Inhibitor CI auf 10% (Tabelle 3). Tab. 3: Bonitur des Mehltaubefalls (Blumeria graminis f. sp. tritici) nach MOLL et al. (1996) 7 dpi.

Weizenpflanzen = details: in vivo
Erbsen = assay: Plant tolerance: germination of peas after imbibition in inhibitor solution; format: in vivo; details: imbibition in a solution of 1 mg/ml; result in words
[8] = target: T2, Cellobiohydrolase I (CBH I) (Trichoderma reesei, UniProt P62694); details: result in words; cited from earlier work
T2 sequence (P62694 18-513): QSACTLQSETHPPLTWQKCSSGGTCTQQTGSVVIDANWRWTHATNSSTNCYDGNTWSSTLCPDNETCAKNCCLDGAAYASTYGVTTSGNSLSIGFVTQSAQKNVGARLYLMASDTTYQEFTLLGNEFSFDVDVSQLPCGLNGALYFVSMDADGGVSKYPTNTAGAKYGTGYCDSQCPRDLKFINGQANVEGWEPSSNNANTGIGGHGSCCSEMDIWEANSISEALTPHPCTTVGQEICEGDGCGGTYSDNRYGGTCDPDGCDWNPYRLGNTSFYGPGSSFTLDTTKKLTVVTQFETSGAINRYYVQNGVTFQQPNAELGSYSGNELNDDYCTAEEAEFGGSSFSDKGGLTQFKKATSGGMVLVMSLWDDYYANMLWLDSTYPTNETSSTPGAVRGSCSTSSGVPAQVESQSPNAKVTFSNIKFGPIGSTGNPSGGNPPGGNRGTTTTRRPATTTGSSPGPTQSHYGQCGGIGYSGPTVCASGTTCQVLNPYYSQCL

Endoglukanase II (EG II) = target: T3, Endoglukanase II (EG II) (Trichoderma reesei, UniProt P07982); details: result in words; cited from earlier work
T3 sequence (P07982 22-418): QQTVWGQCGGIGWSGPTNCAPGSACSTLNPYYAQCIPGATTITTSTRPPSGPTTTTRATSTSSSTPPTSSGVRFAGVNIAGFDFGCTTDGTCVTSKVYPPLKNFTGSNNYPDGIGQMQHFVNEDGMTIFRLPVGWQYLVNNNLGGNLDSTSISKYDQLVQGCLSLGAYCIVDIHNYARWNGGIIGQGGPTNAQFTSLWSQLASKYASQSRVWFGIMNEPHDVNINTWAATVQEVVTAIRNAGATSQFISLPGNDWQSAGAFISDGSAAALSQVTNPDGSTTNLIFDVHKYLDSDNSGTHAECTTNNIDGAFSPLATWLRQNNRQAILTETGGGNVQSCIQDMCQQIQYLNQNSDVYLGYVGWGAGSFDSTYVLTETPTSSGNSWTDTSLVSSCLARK

[9] = infected with F.g. + inhibitor, infected control 341,44
[10] = infected with F.g. + inhibitor, infected control 1261,2
[11] = Stärke as sole C source, 14 days

With CC1OC(OC2C(CO)OC(OC3C(CO)OC(O)C(O)C3O)C(O)C2O)C(O)C(O)C1NC1C=C(CO)C(O)C(O)C1O (stereo not drawn) [AI-1, Acarbose] the “Hemmung der Enzymaktivität” value (Amylase aus Bacillus sp.; 0,5 mg/ml) was “ebenfalls gehemmt, jedoch durch diese Konzentration nicht total ausschaltet”, the IC100 (Humanspeichelamylase; Humanamylase (500 U/mg, Sigma), read-out: Konzentration, bei der die Amylase vollständig / total gehemmt wird) was 250 µg/mL and the “Hemmung der Enzymaktivität” value [1] was “nicht oder nur sehr schwach beeinflusst”. For the same compound, the “Konzentration, bei der die Amylasen total gehemmt wurden” value [2] was 0,06 mg/ml, the “Amylase-Aktivität reduziert bis auf” value ([2]; 5 µg/ml, remaining activity) was 28% and the “Amylasen gehemmt bis auf” value ([3]; 0,5 mg/ml, not totally switched off) was 69,2%. The “Hemmung der Enzymaktivität” value [3] was “starke, wenn auch nicht vollständige Hemmung”, the MIC (Fusarium graminearum [4]; Fusarium graminearum, 336 h, read-out: Konzentration, bei der das Wachstum total gehemmt wird) was 30 µg/mL (≈ 46.5 µM) and the inhibition of growth at 15 µg/mL (Fusarium graminearum [4]; Fusarium graminearum, read-out: Hemmung des Wachstums) was roughly 50%. The “Einfluss auf das Wachstum von Fusarium graminearum” value (Fusarium graminearum [4]; result in words) was “keinen negativen Einfluss; also recorded: sogar gefördert”, the “Faktor effektiver als der Cellulase-Inhibitor gegenüber Stärke als Substrat” value (Fusarium graminearum [4]; total inhibition, 30 µg/ml versus 100 µg/ml) was 3 and the “Fusarium Protein Equivalent (µg/g), Mittelwert” value (Fusarium graminearum [5]; [9]) was 25,2 µg/g. For the same compound, the “Fusarium Protein Equivalent (µg/g), Mittelwert” value (Fusarium graminearum [5]; not infected (K) + inhibitor) was 2,2 µg/g, the “Aussehen der behandelten, infizierten Pflanzen (Fotos)” value (Fusarium graminearum [5]; result in words) was “fast normal aussehen” and the “Effekt auf der Basis des Frischgewichtes” value (Fusarium graminearum [5]; infected wheat seedlings on folded filter, 2 weeks, result in words) was “starke befallreduzierende Effekt; also recorded: positive Effekt”. For the same compound, the “Reduktion des Befalls der Wurzeln (ELISA)” value (Fusarium graminearum [5]; 2 weeks) was 66% and 61%, the “Fusarium Protein Equivalent (µg /g), Mean” value (Fusarium graminearum [5]; [10]) was 554,8 µg /g and the “Fusarium Protein Equivalent (µg /g), Mean” value (Fusarium graminearum [5]; not infected (K) + inhibitor) was 6,3 µg /g. The “Reduktion der Pilzmenge (ELISA)” value (Fusarium graminearum [6]; Versuch 1, 4 weeks, seed dip treatment) was 66%, the “Hemmung des Pilzwachstums (ELISA)” value (Fusarium graminearum [6]; Versuch 1, 4 weeks, seed dip treatment, result in words) was “vollständige Hemmung” and the “Hemmung des Pilzwachstums / Reduktion der Pilzmenge (ELISA)” value (Fusarium graminearum [6]; Versuch 2, 4 weeks, seed dip treatment) was 60% and 85%. The “Blattfrischgewicht infizierter Pflanzen” value (Fusarium graminearum [6]; soil substrate, greenhouse, 4 weeks, AI-1 1 mg /ml seed treatment, result in words) was “hebt diese Frischgewichtsdepression auf; also recorded: gleiche Frischgewicht wie die nicht infizierte Kontrolle”, the “Befall (%)” value [7] was 7% and the “Hemmung von Keimung und Pflanzenwachstum” value (Weizenpflanzen) was “weder der Amylase-Inhibitor AI-1 noch der amylasehemmende Wirkung zeigende Cellulose-Inhibitor die Keimung und das Pflanzenwachstum hemmten”.
With OCCN1C[C@H](O)[C@@H](O)[C@H](O)[C@H]1CO [AI-2, Miglitol] the “Hemmung der Enzymaktivität” value (Amylase aus Bacillus sp.) was “weder die Humanamylase noch die verwendeten käuflichen Amylasen aus Bakterien bzw. Pilzen hemmt; also recorded: nicht zu hemmen vermochte”, the “Hemmung der Enzymaktivität” value (Humanspeichelamylase) was “weder die Humanamylase noch die verwendeten käuflichen Amylasen aus Bakterien bzw. Pilzen hemmt; also recorded: nicht zu hemmen vermochte” and the “Hemmung der Enzymaktivität” value [1] was “weder die Humanamylase noch die verwendeten käuflichen Amylasen aus Bakterien bzw. Pilzen hemmt; also recorded: nicht zu hemmen vermochte”. The “Hemmung der Enzymaktivität” value [2] was “konnte weder die im Handel erhältlichen Amylasen bzw. Cellulasen der verschiedenen Mikroorganismen noch die von Fusarium graminearum in vitro oder in der Pflanze gebildeten Amylasen inhibieren”, the “Hemmung der Enzymaktivität” value [3] was “wirkungslos; also recorded: keine Wirkung; also recorded: konnte weder die im Handel erhältlichen Amylasen bzw. Cellulasen der verschiedenen Mikroorganismen noch die von Fusarium graminearum in vitro oder in der Pflanze gebildeten Amylasen inhibieren” and the “Einfluss auf das Wachstum von Fusarium graminearum” value (Fusarium graminearum [4]; result in words) was “keinen Einfluss”. For the same compound, the “Einfluss auf das Pilzwachstum” value (Fusarium graminearum [4]; Stärke as sole C source, result in words) was “keinen Einfluss”, the “Einfluss auf das Wachstum des Pilzes in vitro” value (Fusarium graminearum [4]; result in words) was “keinerlei hemmenden Einfluss” and the “Fusarium Protein Equivalent (µg /g), Mean” value (Fusarium graminearum [5]; [10]) was 813,0 µg /g. The “Fusarium Protein Equivalent (µg /g), Mean” value (Fusarium graminearum [5]; not infected (K) + inhibitor) was 7,6 µg /g, the “Befall (%)” value [7] was 1% and the “Hemmung der Keimung” value (Erbsen) was “vollständig”. The “Einfluss auf das ausgewachsene Blatt” value (Weizenpflanzen) was “keinen Einfluss auf das ausgewachsene Blatt”, the “Hemmung der Keimung” value (Weizenpflanzen) was “vollständig” and the “Hemmung der Keimung der Weizenpflanzen” value (Weizenpflanzen) was “so stark hemmte, dass sich Jungpflanzen nicht entwickeln konnten”.
For Na2PdCl6 · 4 H2O [CI], the “Konzentration, bei der die Amylase total gehemmt wird” value (Amylase aus Bacillus sp.; Bacillus-Amylase) was 100 µg/mL, the “Hemmung der Enzymaktivität” value (Amylase aus Bacillus sp.) was “bei höherer Konzentration hemmte” and the “Konzentration, bei der die Amylase vollständig / total gehemmt wird” value (Humanspeichelamylase; Humanamylase (500 U/mg, Sigma)) was 25 µg/mL. For the same compound, the “Hemmung der Enzymaktivität” value (Humanspeichelamylase) was “bei höherer Konzentration hemmte”, the “Hemmung der Enzymaktivität” value [1] was “unbeeinflusst blieben” and the “Hemmung der Enzymaktivität” value [2] was “nicht bzw. nur unwesentlich hemmt”. The “Hemmung der Enzymaktivität” value ([2]; listed as Cellulase-Inhibitor) was “bei höheren Konzentrationen auch die Amylasen des Fusarium-Kulturfiltrates hemmt; also recorded: unbeeinflusst blieben”, the “Hemmung der Enzymaktivität” value [3] was “nicht bzw. nur unwesentlich hemmt” and the “Hemmung der Enzymaktivität” value ([3]; listed as Cellulase-Inhibitor) was “unbeeinflusst blieben”. For the same compound, the “Hemmung des Pilzwachstums” value (Fusarium graminearum [4]; Cellulose as C source, 12,5 µg/ml, 14 days, result in words) was “deutliche Wachstumsdepression”, the Wachstumsdepression (Fusarium graminearum [4]; Cellulose as C source, ab 50 bis 100 µg/mL, 14 days) was 100% and the “Konzentration, bei der das Wachstum total gehemmt ist” value (Fusarium graminearum [4]; Cellulose as sole C source) was 50 µg/mL. For the same compound, the Wachstumsrate reduziert um (Fusarium graminearum [4]; Cellulose as sole C source, 12,5 µg/ml) was “ca. 50%”, the “Einfluss auf das Wachstum von Fusarium graminearum” value (Fusarium graminearum [4]; result in words) was “nicht gehemmt” and the “Einfluss auf das Wachstum” value (Fusarium graminearum [4]; Stärke as sole C source, 6,5-12,5 µg/ml, result in words) was “verifizierbare Wachstumsförderung”. The “Konzentration, ab der das Wachstum partiell gehemmt wird” value (Fusarium graminearum [4]; [11]) was no less than 75 µg/mL, the “Konzentration, bei der das Wachstum total gehemmt wird” value (Fusarium graminearum [4]; [11]) was no less than 100 µg/mL and the “Konzentration, bei der das Wachstum total gehemmt wird” value (Fusarium graminearum [4]; Stärke as sole C source, 14 days, listed as Cellulase-Inhibitor) was 100 µg/mL. For the same compound, the “Fusarium Protein Equivalent (µg/g), Mittelwert” value (Fusarium graminearum [5]; [9]) was 66,34 µg/g, the “Fusarium Protein Equivalent (µg/g), Mittelwert” value (Fusarium graminearum [5]; not infected (K) + inhibitor) was 0,04 µg/g and the “Aussehen der behandelten, infizierten Pflanzen (Fotos)” value (Fusarium graminearum [5]; result in words) was “grüner aus, sind aber im Wuchs doch deutlich reduziert”. For the same compound, the “Reduktion des Befalls der Wurzeln (ELISA)” value (Fusarium graminearum [5]; 2 weeks) was 51%, the “Fusarium Protein Equivalent (µg /g), Mean” value (Fusarium graminearum [5]; [10]) was 618,9 µg /g and the “Fusarium Protein Equivalent (µg /g), Mean” value (Fusarium graminearum [5]; not infected (K) + inhibitor) was 49,0 µg /g. For the same compound, the “Hemmung des Pilzwachstums” value (Fusarium graminearum [6]; soil substrate, greenhouse, 4 weeks, both trials, CI 100µg /ml seed treatment, result in words) was “nicht hemmt; also recorded: keinerlei Effekt”, the “Befall (%)” value [7] was 10% and the “Hemmung von Keimung und Pflanzenwachstum” value (Weizenpflanzen) was “weder der Amylase-Inhibitor AI-1 noch der amylasehemmende Wirkung zeigende Cellulose-Inhibitor die Keimung und das Pflanzenwachstum hemmten”. The “negativer Effekt auf das Pflanzenwachstum” value (Weizenpflanzen) was “keinerlei negativen Effekt auf das Pflanzenwachstum”, the Inhibition [8] was “in starkem Maße zu inhibieren” and the Inhibition (Endoglukanase II (EG II)) was “in starkem Maße zu inhibieren”.

From patent EP2145538A1 (priority 2008, dated 2010)
